Source: patent publication US10131652B2, “Pyrimidinyloxy benzene derivatives as herbicides” (E. I. DU PONT DE NEMOURS AND COMPANY, priority 2014, dated 2018)
Where two headings read alike, the source gives them in different places.

Key:
Test in all cases: Test D pre-/postemergence plant response
Assay type in all cases: in vivo
[1] = tested on: morningglory (Ipomoea coccinea); details: Ipomoea; for pest or weed control at 125 g/ha: 125 g ai/ha; for pest or weed control at 250 g/ha: 250 g ai/ha
Procedure, shortened: (§1)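 Visual injury scoring (0–100) at 13 to 15 days in greenhouse. Preemergence sprays on seeded loam/sand; postemergence sprays on 1–4 leaf plants.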

corn (Zea mays) = details: Zea mays; for Corn plant response rating (crop injury, 0 = no effect, 100 = complete kill) at 62 g/ha: 62 g ai/ha
Procedure, shortened: as §1

[2] = tested on: Italian ryegrass (Lolium multiflorum); details: Lolium multiflorum; for pest or weed control at 31 g/ha: 31 g ai/ha; for pest or weed control at 62 g/ha: 62 g ai/ha; for pest or weed control at 125 g/ha: 125 g ai/ha; for pest or weed control at 250 g/ha: 250 g ai/ha
Procedure, shortened: as §1

[3] = tested on: ragweed (common ragweed, Ambrosia elatior); details: Ambrosia artemisiifolia; for pest or weed control at 31 g/ha: 31 g ai/ha; for pest or weed control at 62 g/ha: 62 g ai/ha; for pest or weed control at 125 g/ha: 125 g ai/ha; for pest or weed control at 250 g/ha: 250 g ai/ha
Procedure, shortened: as §1

[4] = tested on: waterhemp (common waterhemp, Amaranthus rudis); details: Amaranthus tuberculatus; for pest or weed control at 31 g/ha: 31 g ai/ha; for pest or weed control at 62 g/ha: 62 g ai/ha; for pest or weed control at 125 g/ha: 125 g ai/ha; for pest or weed control at 250 g/ha: 250 g ai/ha
Procedure, shortened: as §1

[5] = tested on: lambsquarters (Chenopodium album); details: Chenopodium album; for pest or weed control at 31 g/ha: 31 g ai/ha; for pest or weed control at 62 g/ha: 62 g ai/ha; for pest or weed control at 125 g/ha: 125 g ai/ha; for pest or weed control at 250 g/ha: 250 g ai/ha
Procedure, shortened: as §1

[6] = tested on: winter wheat (Triticum aestivum); details: Triticum aestivum; for plant injury at 31 g/ha: 31 g ai/ha; for plant injury at 62 g/ha: 62 g ai/ha; for plant injury at 125 g/ha: 125 g ai/ha; for plant injury at 250 g/ha: 250 g ai/ha
Procedure, shortened: as §1

[7] = post-emergence, Postemergence, scale 0 to 100, 0 no effect, 100 complete control, read-out: Plant response rating, Morningglory
[8] = pre-emergence, Preemergence, read-out: Plant response rating (scale 0 to 100), Morningglory
[9] = post-emergence, Postemergence, scale 0 to 100, 0 no effect, 100 complete control, read-out: Plant response rating, Ryegrass, Italian
[10] = pre-emergence, Preemergence, read-out: Plant response rating (scale 0 to 100), Ryegrass, Italian
[11] = pre-emergence, Preemergence, scale 0 to 100 (0 no effect, 100 complete control), read-out: Plant response rating, Ryegrass, Italian
[12] = post-emergence, Postemergence, scale 0 to 100, 0 no effect, 100 complete control, read-out: Plant response rating, Ragweed
[13] = pre-emergence, Preemergence, read-out: Plant response rating (scale 0 to 100), Ragweed
[14] = pre-emergence, Preemergence, scale 0 to 100 (0 no effect, 100 complete control), read-out: Plant response rating, Ragweed
[15] = post-emergence, Postemergence, scale 0 to 100, 0 no effect, 100 complete control, read-out: Plant response rating, Waterhemp
[16] = pre-emergence, Preemergence, read-out: Plant response rating (scale 0 to 100), Waterhemp
[17] = pre-emergence, Preemergence, scale 0 to 100 (0 no effect, 100 complete control), read-out: Plant response rating, Waterhemp
[18] = post-emergence, Postemergence, scale 0 to 100, 0 no effect, 100 complete control, read-out: Plant response rating, Lambsquarters
[19] = pre-emergence, Preemergence, read-out: Plant response rating (scale 0 to 100), Lambsquarters
[20] = pre-emergence, Preemergence, scale 0 to 100 (0 no effect, 100 complete control), read-out: Plant response rating, Lambsquarters
[21] = post-emergence, Postemergence, scale 0 to 100, 0 no effect, 100 complete control, read-out: Plant response rating, Wheat
[22] = pre-emergence, Preemergence, read-out: Plant response rating (scale 0 to 100), Wheat
[23] = pre-emergence, Preemergence, scale 0 to 100 (0 no effect, 100 complete control), read-out: Plant response rating, Wheat

`FC(F)c1cc(-c2ccccc2Oc2ncc(Br)cn2)no1` [Compound 62, 5-bromo-2-[2-[5-(difluoromethyl)-3-isoxazolyl]phenoxy]pyrimidine] was tested, and the pest or weed control at 125 g/ha [1, 7] was 95%, the pest or weed control at 250 g/ha [1, 7] was 98% and the pest or weed control at 125 g/ha [1, 8] was 98%. For the same compound, the pest or weed control at 250 g/ha [1, 8] was 100%, the pest or weed control at 31 g/ha ([1]; pre-emergence, Preemergence, 31 g ai/ha, scale 0 to 100 (0 no effect, 100 complete control), read-out: Plant response rating, Morningglory) was 25% and the pest or weed control at 62 g/ha ([1]; pre-emergence, Preemergence, 62 g ai/ha, scale 0 to 100 (0 no effect, 100 complete control), read-out: Plant response rating, Morningglory) was 55%. For the same compound, the plant injury at 31 g/ha (corn (Zea mays); post-emergence, Postemergence, 31 g ai/ha, scale 0 to 100 (0 no effect, 100 complete control), read-out: Corn plant response rating) was 10%, the Corn plant response rating (crop injury, 0 = no effect, 100 = complete kill) at 62 g/ha (corn (Zea mays); post-emergence, Postemergence, scale 0 to 100, 0 no effect, 100 complete control) was 10% and the Corn plant response rating (crop injury, 0 = no effect, 100 = complete kill) at 125 g/ha (corn (Zea mays); post-emergence, Postemergence, 125 g ai/ha, scale 0 to 100, 0 no effect, 100 complete control) was 15%. For the same compound, the Corn plant response rating (crop injury, 0 = no effect, 100 = complete kill) at 250 g/ha (corn (Zea mays); post-emergence, Postemergence, 250 g ai/ha, scale 0 to 100, 0 no effect, 100 complete control) was 10%, the plant injury at 125 g/ha (corn (Zea mays); pre-emergence, Preemergence, 125 g ai/ha, read-out: Plant response rating (scale 0 to 100), Corn) was 60% and the plant injury at 250 g/ha (corn (Zea mays); pre-emergence, Preemergence, 250 g ai/ha, read-out: Plant response rating (scale 0 to 100), Corn) was 70%. The Corn plant response rating (crop injury, 0 = no effect, 100 = complete kill) at 31 g/ha (corn (Zea mays); pre-emergence, Preemergence, 31 g ai/ha, scale 0 to 100 (0 no effect, 100 complete control)) was 35%, the Corn plant response rating (crop injury, 0 = no effect, 100 = complete kill) at 62 g/ha (corn (Zea mays); pre-emergence, Preemergence, scale 0 to 100 (0 no effect, 100 complete control)) was 30% and the pest or weed control at 31 g/ha ([2]; post-emergence, Postemergence, scale 0 to 100 (0 no effect, 100 complete control), read-out: Ryegrass, Italian plant response rating) was 5%. The pest or weed control at 62 g/ha [2, 9] was 5%, the pest or weed control at 125 g/ha [2, 9] was 30% and the pest or weed control at 250 g/ha [2, 9] was 40%. It also gave a pest or weed control at 125 g/ha [2, 10] of 90%, a pest or weed control at 250 g/ha [2, 10] of 95% and a pest or weed control at 31 g/ha [2, 11] of 40%. It also gave a pest or weed control at 62 g/ha [2, 11] of 60%, a pest or weed control at 31 g/ha ([3]; post-emergence, Postemergence, scale 0 to 100 (0 no effect, 100 complete control), read-out: Ragweed plant response rating) of 65% and a pest or weed control at 62 g/ha [3, 12] of 60%. For the same compound, the pest or weed control at 125 g/ha [3, 12] was 65%, the pest or weed control at 250 g/ha [3, 12] was 85% and the pest or weed control at 125 g/ha [3, 13] was 75%. For the same compound, the pest or weed control at 250 g/ha [3, 13] was 85%, the pest or weed control at 31 g/ha [3, 14] was 0% and the pest or weed control at 62 g/ha [3, 14] was 65%. For the same compound, the pest or weed control at 31 g/ha ([4]; post-emergence, Postemergence, scale 0 to 100 (0 no effect, 100 complete control), read-out: Waterhemp plant response rating) was 98%, the pest or weed control at 62 g/ha [4, 15] was 98% and the pest or weed control at 125 g/ha [4, 15] was 98%. For the same compound, the pest or weed control at 250 g/ha [4, 15] was 100%, the pest or weed control at 125 g/ha [4, 16] was 100% and the pest or weed control at 250 g/ha [4, 16] was 100%. It also gave a pest or weed control at 31 g/ha [4, 17] of 100%, a pest or weed control at 62 g/ha [4, 17] of 100% and a pest or weed control at 31 g/ha ([5]; post-emergence, Postemergence, scale 0 to 100 (0 no effect, 100 complete control), read-out: Lambsquarters plant response rating) of 98%. For the same compound, the pest or weed control at 62 g/ha [5, 18] was 98%, the pest or weed control at 125 g/ha [5, 18] was 100% and the pest or weed control at 250 g/ha [5, 18] was 100%. It also gave a pest or weed control at 125 g/ha [5, 19] of 98%, a pest or weed control at 250 g/ha [5, 19] of 100% and a pest or weed control at 31 g/ha [5, 20] of 100%. It also gave a pest or weed control at 62 g/ha [5, 20] of 95%, a plant injury at 31 g/ha ([6]; post-emergence, Postemergence, scale 0 to 100 (0 no effect, 100 complete control), read-out: Wheat plant response rating) of 30% and a plant injury at 62 g/ha [6, 21] of 20%. It also gave a plant injury at 125 g/ha [6, 21] of 10%, a plant injury at 250 g/ha [6, 21] of 40% and a plant injury at 125 g/ha [6, 22] of 40%. For the same compound, the plant injury at 250 g/ha [6, 22] was 50%, the plant injury at 31 g/ha [6, 23] was 0% and the plant injury at 62 g/ha [6, 23] was 10%.
